Reference: patent publication US20240382487A1, “NOVEL COPI/ARF1-LIPOLYSIS PATHWAY INHIBITOR AND COMPOUND FOR ERADICATING CANCER STEM CELLS AND INDUCING DAMP-MEDIATED ANTI-TUMOR IMMUNE RESPONSE” (FUDAN UNIVERSITY, priority 2020, published 2024)

Assays:
[1] = tested on: Drosophila stem cell tumors; assay: Drosophila screen (stem cell / intestinal tumors); assay type: in vivo
Description: (§2) We tested 10 reported Arf1 inhibitors (Bill et al., 2011; Boal et al., 2010; Feng et al., 2004; Newton et al., 2006; Ohashi et al., 2012; Sáenz et al., 2009; Sorieul et al., 2011; Viaud et al., 2007), including brefeldin A (BFA), Golgicide A (GCA), LM11, Secin16, Secin H3, Secin B7, Exo1, Exo2, LG8, and LG18, on Drosophila stem cell tumors and normal human bone marrow hematopoietic stem cells (HSCs).

tumor cells = assay: Tumor cytotoxicity experiments in vitro (all lines, general statements); assay type: cell-based; details: HT29, LoVo, Huh7, H460, A549; FIG. 2-7
Description: (§1) In different tumor cytotoxicity experiments in vitro (FIG. 2-FIG. 7), including colorectal cancer cell lines HT29 and LoVo cells, liver cancer cell Huh7, lung cancer cells H460 and A549, the arf1 inhibitor could all inhibit tumor cell growth (FIG. 2-FIG. 6), and there was a dose-dependent manner (FIG. 7).

[2] = tested on: normal human bone marrow hematopoietic stem cells (HSCs); assay: Toxicity on normal hematopoietic stem cells
Description: as §2

Arf1 = target: T1, Arf1 (Homo sapiens, UniProt P84077); assay: Active Arf1 Pull-Down and Detection Kit (GTP-bound Arf1); assay type: biochemical; details: liver cancer Huh-7 cell lysate; FIG. 1
T1 construct: Active Arf1 was detected by using The Thermo Scientific Pierce Active Arf1 Pull-Down and Detection Kit (Cat #16121) with liver cancer Huh-7 cell lysate; endogenous in cells; host or cells: Huh-7 liver cancer cells (lysate)
T1 sequence (P84077 whole entry): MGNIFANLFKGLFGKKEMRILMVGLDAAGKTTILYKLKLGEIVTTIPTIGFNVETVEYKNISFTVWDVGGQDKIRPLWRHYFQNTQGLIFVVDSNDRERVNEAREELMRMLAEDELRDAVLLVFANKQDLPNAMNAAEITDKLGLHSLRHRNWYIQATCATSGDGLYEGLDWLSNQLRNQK
Description: Active Arf1 was detected by using The Thermo Scientific Pierce Active Arf1 Pull-Down and Detection Kit (Cat #16121) with liver cancer Huh-7 cell lysate. It is a complete kit for selective enrichment and detection of GTP-bound Arf1 GTPase through specific protein interaction with the GGA3 protein-binding domain (FIG. 1).

[3] = tested on: liver tumors in MYC-ON mice; assay: MYC-ON liver tumor model; assay type: in vivo; details: gavage, 5 per week for 4 weeks, analyzed 10 weeks later
Description: We used the Tet system to generate transgenic mice conditionally expressing the myc pro-oncogene in hepatocytes, […] myc/lap TTA (lt2-myc) (shachaf et al., 2004). We crossed tre-myc mice with a transgenic line, lap TTA. in which the liver activator protein (LAP) promoter drives the expression of tetracycline trans-activator protein (TTA) in hepatocytes. We confirmed this by discontinuing the feeding of doxycycline (myc-ON) activated myc transgene expression in 3-week-old mice. Subsequently. all transgenic mice overexpressing myc succumbed to liver tumors with a mean latency to tumor onset of 12 weeks, as previously reported (shachaf et al., 2004). In this lap TTA/tet-off myc conditional transgenic mouse model, myc overexpression in adult mice reproducibly induces liver cancer, similar to hepatocellular carcinoma and/or hepatoblastoma. The transgenic tumor invades the entire liver locally and is frequently associated with malignant peritoneal effusions that spread to the thoracic cavity by metastasis and invade the lung parenchyma.
For the mouse liver tumor model, mating cages and weaning cages were administrated by a grain based rodent diet (Bio-Serv. Cat #14-727-450) containing 200 mg/kg doxycycline, and the mice were induced tumors at 6 weeks of age, by changing to a normal diet. Mice were divided into three groups, control, Du 101 treated and du102 treated. The control group was given 100 by gavage using a feeding tube 100 μl/10 g body weight (BW) 20% DMSO+80% corn oil. Du 101 treated groups were treated with 25 mg/ml Du 101. The stock solution was diluted 1:4 with corn oil to make the working solution. Dul02 treatment groups were treated with 25 mg/ml du102 stock solution diluted 1:4 with corn oil to make working solutions. The mixed working solution was administered to mice by gavage using a feeding tube. Starting from the second week of myc-0n, 5 injections per week ([…]) were given for 4 weeks, mice were monitored every 2 days, and 10 weeks later mice were euthanized and analyzed for tumor growth.
For the myc-on liver tumor model, antibodies were i.p. Mg/kg) was injected once a week for 5 consecutive weeks, the first Doxycycline was discontinued weekly after injection. Antibodies used to treat mice were as follows: anti-CD4 (clone GK1.5, BioXcell, Cat #BE0003-1), anti-CD8 a (clone 2.43, BioXcell, Cat #BE0061) Or […] rat IgG (bioxcell, cat #be0094) isotype control antibody. From the second week of myc-on initiation lasted for 4 weeks, Du 102 and DMSO were administered by gavage needle as described above, mice were monitored every 2 days, and 10 weeks later mice were euthanized and analyzed for tumor growth.
For the myc-on liver tumor model, antibodies were i.p. Injection once a week for 5 weeks, and doxycycline was discontinued weekly after the first injection. Antibodies used to treat mice were as follows: 100 ug/mouse Armenian hamster anti mouse PD1 (J43, bioxcell, cat #be0033-2) and 100 ug/mouse Armenian hamster isotype IgG (bioxcell. cat #bp0091) was used as controls. For 4 weeks from the second week of myc-on, Du 102 and DMSO were administered by gavage needle as described above, mice were monitored every 2 days. and 10 weeks later mice were euthanized and analyzed for tumor growth. Coadministration of anti-PD-1 antibodies may allow the use of lower, less toxic doses of du102, thus avoiding known side effects.

mice = assay: Toxicity in mice, oral gavage; assay type: in vivo
[4] = tested on: colorectal cancer cell line HT29; assay: In vitro cell line screening, HT29; assay type: cell-based
Description: as §1

lung cancer cells H460 = assay: In vitro cell line screening, H460; assay type: cell-based
Description: as §1

[5] = tested on: colorectal cancer cell line LoVo; assay: In vitro cell line screening, LoVo; assay type: cell-based
Description: as §1

lung cancer cells A549 = assay: In vitro cell line screening, A549; assay type: cell-based
Description: as §1

liver cancer cell Huh7 = assay: In vitro cell line screening, Huh7; assay type: cell-based
Description: as §1

| SMILES | in vivo tumor suppressive effects ([1]; Drosophila screen, FIG. 8) | killing Drosophila stem cell tumors ([1]; in vivo) | tumor suppressive / inhibitory effect on tumor cells (tumor cells) | toxicity (killing normal HSCs) [2] | inhibition of arf1 activation (Arf1) | liver tumor numbers [3] | toxic effects (mice; oral gavage for 60 consecutive days, FIG. 10) | toxic effects (mice; up to 50 mg/kg by oral gavage for 21 consecutive days, FIG. 9) | tumor suppressive effect [4] | tumor suppressive effect (lung cancer cells H460) | tumor suppressive effect [5] | tumor suppressive effect (lung cancer cells A549) | tumor suppressive effect (liver cancer cell Huh7) |
| --- | --- | --- | --- | --- | --- | --- | --- | --- | --- | --- | --- | --- | --- |
| C(=N\Nc1ncnc2sc3c(c12)CCCC3)/c1ccc2[nH]ccc2c1 [Du 101] | good in vivo tumor suppressive effects | effective | Some Tumor Suppressive Effect | relatively low toxicity | potent inhibitors | 44.7 | induced toxic effects | no toxic effects were observed | – | – | – | – | – |
| Cc1ccc(/C=C/Cc2cccc3c2C2=C(CCCC2)C3)cc1C [compound 104] | – | – | – | – | – | – | – | – | effective tumor suppressive effects | effective tumor suppressive effects | effective tumor suppressive effects | effective tumor suppressive effects | effective tumor suppressive effects |
| C1=Cc2cc(/C=C/Cc3cccc4c3C3=C(CCCC3)C4)ccc2C1 [compound 107] | – | – | – | – | – | – | – | – | effective tumor suppressive effects | effective tumor suppressive effects | effective tumor suppressive effects | effective tumor suppressive effects | effective tumor suppressive effects |
| C(=C\c1ccccc1)/Cc1cccc2c1C1=C(CCCCCC1)C2 [compound 109] | – | – | – | – | – | – | – | – | effective tumor suppressive effects | effective tumor suppressive effects | effective tumor suppressive effects | effective tumor suppressive effects | effective tumor suppressive effects |
